# Patent US11857536B2, “Glucokinase activator for treating diabetes with renal impairment” (HUA Medicine (Shanghai) Ltd., priority 2020, dated 2024)
# Where two headings read alike, the source gives them in different places.
# Assay: Phase I open-label, parallel-group, single oral dose pharmacokinetic study of dorzagliatin in ESRD and healthy subjects
# Type: in vivo, human
# Details: single 25 mg oral dose; for AUC(0-inf) / AUC(0-t) / Cmax: human, po, 25 mg; for Cmax: read-out: Cmax, LS mean
# Source text: This phase I study was to access the pharmacokinetics and safety of a single dose of dorzagliatin in renally impaired and heathy subjects. The study was divided into two phases: Phase 1 having two groups (P1 and H) and Phase 2 having three groups (P2, P3, and P4). Phase 2 would start after the completion of Phase 1 and determining an increase of ≥100% in the average AUC (AUClast or AUCinf) of the ESRD subjects than that of the healthy subjects in Phase 1. The ESRD subjects of Group P1 were matched closely with the healthy subjects as to their sexes, ages (±5 yrs), and BMIs (±15%).
# In Phase 1, eligible subjects were admitted to a clinical research center (CRC) on Day −2 or −1. On Day −1, the subjects had no additional food after a standard dinner for at least 10 h. In the morning of Day 1, the subjects received dorzagliatin (25 mg) orally with empty stomach. […] Blood samples were collected at the following time points: within 60 min pre-dose; and at 0.25, 0.5, 1, 1.5, 2, 2.5, 3, 4, 6, 8, 12, 24, 36, 48, and 72 h post-dose. Urine samples for the pharmacokinetic (PK) analysis were collected at the following time points: within 60 min pre-dose; and at 0˜4, 4˜8, 8˜12, 12˜24, 24˜36, 36˜48, and 48˜72 h post-dose. The samples were analyzed using LC-MS/MS. The plasma concentration-time data for dorzagliatin were analyzed using a non-compartmental model to obtain PK parameters, including Cmax, AUClast, AUCinf, Cmax,u, AUClast,u, and AUCinf,u. An ANOVA analysis was performed on the data between H and P1 groups.
smiles,measurement,setting,value
"CC(C)C[C@@H](C(=O)Nc1ccn(C[C@@H](O)CO)n1)N1CC(Oc2ccccc2Cl)=CC1=O [dorzagliatin, (S)-2-(4-(2-chlorophenoxy)-2-oxo-2,5-dihydro-1H-pyrrol-1-yl)-N-(1-((R)-2,3-dihydroxypropyl)-1H-pyrazol-3-yl)-4-methylpentanamide]","Cmax, u, LS mean","Group H (healthy), fasted",0.0295 µg/mL
same,"AUClast, LS mean","Group H (healthy), fasted, plasma",1.857 µg·h/mL
same,"Cmax, u, LS mean","Group P1 (ESRD), fasted",0.0275 µg/mL
same,AUC(0-inf),"plasma, Group H (healthy), fasted, plasma, read-out: AUCinf, LS mean",1.89 µg·h/mL
same,AUC(0-inf),"plasma, Group H (healthy), fasted, read-out: AUCinf, u, LS mean",0.126 µg·h/mL
same,AUC(0-t),"plasma, Group H (healthy), fasted, read-out: AUClast, u, LS mean",0.124 µg·h/mL
same,Cmax,"plasma, Group H (healthy, eGFR ≥90), fasted, plasma",0.442 µg/mL
same,AUC(0-inf),"plasma, Group P1 (ESRD), fasted, plasma, read-out: AUCinf, LS mean",2.07 µg·h/mL
same,AUC(0-t),"plasma, Group P1 (ESRD), fasted, plasma, read-out: AUClast, LS mean",2.06 µg·h/mL
same,AUC(0-inf),"plasma, Group P1 (ESRD), fasted, read-out: AUCinf, u, LS mean",0.163 µg·h/mL
same,AUC(0-t),"plasma, Group P1 (ESRD), fasted, read-out: AUClast, u, LS mean",0.162 µg·h/mL
same,Cmax,"plasma, Group P1 (ESRD, eGFR <15, no dialysis), fasted, plasma",0.356 µg/mL
same,"Cmax, u GMR (P1/H)",ratio ESRD/healthy,0.93
same,"AUCinf in ESRD subjects (Group P1) compared to healthy subjects (Group H), in words",,substantially the same
same,"Cmax in ESRD subjects (Group P1) compared to healthy subjects (Group H), in words",,slightly decreased
same,"Difference in AUC between Groups H and P1, in words","ANOVA, preset criterion AUC increase >100% not met",no significant difference
